Experimental data taken from paper PMC4911292 (Clinical cancer research : an official journal of the …, 2016).

Assays:
[1] = parameters: species or system human; conditions: in vivo
[2] = test system: pretreated metastatic breast cancer; conditions: single agent; cited from earlier work
[3] = cited from earlier work
PARP = conditions: at lower doses; cited from earlier work
P-glycoprotein (P-gp) = conditions: cited from earlier work
[4] = test system: germline BRCA mutation-associated cancer; conditions: monotherapy throughout a 28-day cycle; cited from earlier work
[5] = Veliparib pharmacokinetics in plasma and urine; type: in vivo, human
[6] = test system: patients with recurrent and/or metastatic TNBC and/or BRCA mutation-associated breast cancer
CYP enzymes = conditions: cited from earlier work
[7] = test system: advanced triple-negative breast cancer and/or BRCA mutation-associated breast cancer; test: Preliminary efficacy; type: in vivo, human; conditions: veliparib with cisplatin and vinorelbine
[8] = N=50, veliparib with cisplatin and vinorelbine, any time during study
[9] = veliparib monotherapy, 23 patients
[10] = veliparib with cisplatin and vinorelbine, N=50
[11] = germline BRCA1 and BRCA2 wild-type, n=26
[12] = germline BRCA1 or BRCA2 mutation positive, n=14

N.N.[Cl][Pt][Cl] [cisplatin]
Median C4/C1 ratio for ultrafilterable platinum AUC0-24 [1]: 0.98 | Median C4/C1 ratio for ultrafilterable platinum Cmax [1]: 0.99 | Response rate [2]: less than 10%

CCC1=C[C@@H]2CN(C1)Cc1c([nH]c3ccccc13)[C@@](C(=O)OC)(c1cc3c(cc1OC)N(C)[C@H]1[C@@](O)(C(=O)OC)[C@H](OC(C)=O)[C@]4(CC)C=CCN5CC[C@]31[C@@H]54)C2 [vinorelbine]
Renal excretion, share of the administered dose [3]: approximately 10%

C[C@]1(c2nc3c(C(N)=O)cccc3[nH]2)CCCN1 [veliparib]
PARP inhibition by PAR assay (PARP): 90% | Inhibition or induction of P-gp (P-glycoprotein (P-gp)): does not appear to inhibit or induce P-gp | P-gp substrate status (P-glycoprotein (P-gp)): weak P-glycoprotein (P-gp) substrate | Current RP2D as monotherapy [4]: 400 mg BID | Proportion of the first dose excreted in the urine over 12 hours (median) ([5]; cycle 1, N=20): 61.7% | Proportion of the first dose excreted in the urine over 12 hours (median) ([5]; cycle 4, N=20): 66.7% | Median C4/C1 ratio of Cmax ([5]; cycle 4 day 1 vs cycle 1 day 0, N=32, range 0.36-2.00): 0.85 | Median C4/C1 ratio of AUC0-6 ([5]; cycle 4 day 1 vs cycle 1 day 0, N=32, range 0.44-1.64): 0.82 | Dose limiting toxicity ([6]; 40 mg dose level, with cisplatin and vinorelbine, one patient, bone marrow involvement of breast cancer): grade 4 thrombocytopenia | Anemia, All grades [6, 8]: 32 (64%) N (%) | Anorexia, All grades [6, 8]: 17 (34%) N (%) | Dehydration, All grades [6, 8]: 17 (34%) N (%) | Dyspepsia, All grades [6, 8]: 11 (22%) N (%) | Fatigue, All grades [6, 8]: 40 (80%) N (%) | Hypokalemia, All grades [6, 8]: 13 (26%) N (%) | Nausea, All grades [6, 8]: 43 (86%) N (%) | Neutrophil count decreased, All grades [6, 8]: 31 (62%) N (%) | Peripheral sensory neuropathy, All grades [6, 8]: 21 (42%) N (%) | Platelet count decreased, All grades [6, 8]: 33 (66%) N (%) | Tinnitus, All grades [6, 8]: 26 (52%) N (%) | Vomiting, All grades [6, 8]: 21 (42%) N (%) | Recommended phase II dose (RP2D) ([6]; in combination with cisplatin and vinorelbine): 300 mg BID | Patients reporting AEs on monotherapy ([6]; veliparib monotherapy): Six of 23 | Dyspepsia, any grade [6, 9]: 17% | Nausea, any grade [6, 9]: 17% | Vomiting, any grade [6, 9]: 17% | Grade 3/4 anemia [6, 10]: 30% | Grade 3/4 neutropenia [6, 10]: 36% | Grade 3/4 thrombocytopenia [6, 10]: 12% | Inhibition or induction of major CYP enzymes (CYP enzymes): does not appear to inhibit or induce the activity of major CYP enzymes | Share of oral clearance accounted for by CYP2D6 (CYP enzymes): ~ 18% | Share of oral clearance accounted for by additional liver metabolism (CYP enzymes): 10% | Best overall response: complete response ([7]; 48 patients): 4% | Progressive disease as best response or not assessed due to disease or toxicity ([7]; 48 patients): 21% | Stable disease as best response ([7]; 48 patients): 44% | Overall response rate (CR+PR, confirmed) ([7]; 48 patients, 95% CI 23%-50%): 35% | Response (CR+PR) ([7]; BRCA mutation present): 57% | Median progression-free survival ([7]; all 50 patients, 95% CI 4.1-6.7): 5.5 months | Median overall survival ([7]; all patients, 95% CI 8.1-20.7): 9.6 months | Best overall response: Complete response (CR) [7, 11]: 1 (4%) n(%) | Best overall response: Partial response (PR) [7, 11]: 7 (27%) n(%) | Best overall response: Progressive disease (PD) [7, 11]: 6 (23%) n(%) | Best overall response: Complete response (CR) [7, 12]: 1 (7%) n(%) | Best overall response: Partial response (PR) [7, 12]: 7 (50%) n(%) | Best overall response: Progressive disease (PD) [7, 12]: 1 (7%) n(%) | Clinical benefit (PFS6) rate [7, 12]: 10 (71%) n(%) | Median OS ([7]; germline BRCA mutation): 22.6 months | Median PFS ([7]; germline BRCA mutation): 9.2 months | 6-month progression-free survival (PFS6) ([7]; germline BRCA mutation absent): 30% | 6-month progression-free survival (PFS6) ([7]; germline BRCA mutation present): 71% | Median PFS ([7]; germline BRCA wild-type): 4.2 months | Best overall response: Complete response (CR) ([7]; total, n=48): 2 (4%) n(%) | Best overall response: Partial response (PR) ([7]; total, n=48): 15 (31%) n(%) | Best overall response: Progressive disease (PD) ([7]; total, n=48): 10 (21%) n(%) | Best overall response: Partial response (PR) ([7]; unknown mutation status, n=8): 1(12%) n(%) | Best overall response: Progressive disease (PD) ([7]; unknown mutation status, n=8): 3 (38%) n(%) | Clinical benefit (PFS6) rate ([7]; unknown mutation status, n=8): 2 (25%) n(%) | Median OS ([7]; unknown mutational status): 6.2 months | Median PFS ([7]; unknown mutational status): 4.0 months
